Drawing on patent US8158628B2, “Sulfonylated 1,2,3,4-tetrahydropyrrolo[1,2-a]pyrazine compounds and their use as pharmaceuticals” (Gruenenthal GmbH, priority 2009, dated 2012), this text covers inhibition for 16 compounds.

Experiment [1] concerns the target T1, human B1R (Homo sapiens, UniProt P46663).
T1 construct: expressed in transfected cells; host or cells: CHO K1 cells (Chinese hamster ovary), stably transfected
T1 sequence (P46663 1-353): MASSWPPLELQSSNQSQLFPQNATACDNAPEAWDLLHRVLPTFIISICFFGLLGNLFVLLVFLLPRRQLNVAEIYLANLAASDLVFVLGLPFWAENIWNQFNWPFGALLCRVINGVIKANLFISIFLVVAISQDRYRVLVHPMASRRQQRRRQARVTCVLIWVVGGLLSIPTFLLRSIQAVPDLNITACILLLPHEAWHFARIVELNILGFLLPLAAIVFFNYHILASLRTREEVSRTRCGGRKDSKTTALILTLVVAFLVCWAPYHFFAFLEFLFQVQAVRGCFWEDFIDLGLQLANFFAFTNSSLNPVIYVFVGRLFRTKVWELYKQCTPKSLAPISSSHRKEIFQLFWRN
As to the kind of experiment: FLIPR Ca2+ functional assay, B1R antagonism, human B1R in CHO K1 cells. Format: cell-based. The settings on record: test substance 10 μM; hB1R CHO K1 cells; agonist Lys-Des-Arg9 bradykinin at EC80; % of maximum achievable inhibition. A digest of the protocol: (§1)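 IC50 values come from varied compound concentrations applied 10-20 min before an EC80 agonist challenge, with Des-Arg9 bradykinin for rat and Lys-Des-Arg9 bradykinin for human receptor. Ca2+ influx in Fluo-4-loaded CHO K1 transfectants was measured by FLIPR peak fluorescence. Data are % inhibition vs maximum, n=2-3, N>=2.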

Experiment [2] deals with T2, B1R of the rat (Rattus norvegicus, UniProt P97583).
T2 construct: expressed in transfected cells; host or cells: CHO K1 cells (Chinese hamster ovary), stably transfected
T2 sequence (P97583 1-337): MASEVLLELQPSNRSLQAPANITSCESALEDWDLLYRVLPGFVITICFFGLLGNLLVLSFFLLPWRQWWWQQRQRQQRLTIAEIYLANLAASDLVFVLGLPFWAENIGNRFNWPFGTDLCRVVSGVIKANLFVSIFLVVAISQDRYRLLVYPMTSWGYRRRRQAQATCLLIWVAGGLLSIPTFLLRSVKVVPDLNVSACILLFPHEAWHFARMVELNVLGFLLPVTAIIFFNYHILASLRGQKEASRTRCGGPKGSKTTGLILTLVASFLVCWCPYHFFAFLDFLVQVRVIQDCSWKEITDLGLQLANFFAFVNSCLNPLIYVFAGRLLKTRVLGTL
As to the kind of experiment: FLIPR Ca2+ functional assay, B1R antagonism, rat B1R in CHO K1 cells. It counts as cell-based. The settings on record: test substance 10 μM; rB1R CHO K1 cells; agonist Des-Arg9 bradykinin at EC80; % of maximum achievable inhibition. A digest of the protocol: as §1

Broadly, the inhibition is the drop in the measured response relative to a control, in per cent. As for `Cc1ccc(S(=O)(=O)N2CCn3cccc3C2CC(=O)NC2CCc3cc(CN4CCCCC4)ccc3C2)cc1Cl` (centres unmarked) [Example 50, 2-[2-[(3-Chloro-4-methyl-phenyl)sulfonyl]-1,2,3,4-tetrahydro-pyrrolo[1,2-a]pyrazin-1-yl]-N-[6-(piperidin-1-yl-methyl)-1,2,3,4-tetrahydro-naphthalen-2-yl]-acetamide], the inhibition at 10 µM in experiment [1] came out at 99.7%; in experiment [2], 99.5%.
`Cc1ccc(S(=O)(=O)N2CCn3cccc3C2CC(=O)NC2CCc3cc(CNCc4ccccc4)ccc3C2)cc1Cl` (centres unmarked) [Example 51, N-[6-[(Benzylamino)-methyl]-1,2,3,4-tetrahydro-naphthalen-2-yl]-2-[2-[(3-chloro-4-methyl-phenyl)sulfonyl]-1,2,3,4-tetrahydro-pyrrolo[1,2-a]pyrazin-1-yl]-acetamide]: the inhibition at 10 µM in experiment [1] turned out to be 99.5%; in experiment [2], 103%.
For `Cc1ccc(S(=O)(=O)N2CCn3cccc3C2CC(=O)NC2CCc3cc(CN4CCCc5ccccc54)ccc3C2)cc1Cl` (centres unmarked) [Example 52, 2-[2-[(3-Chloro-4-methyl-phenyl)sulfonyl]-1,2,3,4-tetrahydro-pyrrolo[1,2-a]pyrazin-1-yl]-N-[6-(1,2,3,4-tetrahydro-quinolin-1-yl-methyl)-1,2,3,4-tetrahydro-naphthalen-2-yl]-acetamide], in that order: 96% and 103%.
For `O=C(CC1c2cccn2CCN1S(=O)(=O)c1cccc(C(F)(F)F)c1)NC1CCCc2cc(CN3CCOCC3)ccc21` (centres unmarked) [Example 53, N-[6-(Morpholin-4-yl-methyl)-1,2,3,4-tetrahydro-naphthalen-1-yl]-2-[2-[[3-(trifluoromethyl)phenyl]sulfonyl]-1,2,3,4-tetrahydro-pyrrolo[1,2-a]pyrazin-1-yl]-acetamide] the same measures were 99% and 102%.
For `Cc1ccc(S(=O)(=O)N2CCn3cccc3C2CC(=O)NC2CCCc3cc(CN4CCOCC4)ccc32)cc1` (centres unmarked) [Example 54, N-[6-(Morpholin-4-yl-methyl)-1,2,3,4-tetrahydro-naphthalen-1-yl]-2-[2-(p-tolylsulfonyl)-1,2,3,4-tetrahydro-pyrrolo[1,2-a]pyrazin-1-yl]-acetamide], the inhibition at 10 µM in experiment [1] stood at 99%; in experiment [2], 100%.
For `Cc1ccc(S(=O)(=O)N2CCn3cccc3C2CC(=O)NC2CCCc3cc(CN4CCN(C)CC4)ccc32)cc1Cl` (centres unmarked) [Example 55, 2-[2-[(3-Chloro-4-methyl-phenyl)sulfonyl]-1,2,3,4-tetrahydro-pyrrolo[1,2-a]pyrazin-1-yl]-N-[6-[(4-methyl-piperazin-1-yl)-methyl]-1,2,3,4-tetrahydro-naphthalen-1-yl]-acetamide] the same measures were 99.8% and 99.4%.
For `Cc1ccc(S(=O)(=O)N2CCn3cccc3C2CC(=O)NC2CCCc3cc(CN4CCCCC4)ccc32)cc1Cl` (centres unmarked) [Example 56, 2-[2-[(3-Chloro-4-methyl-phenyl)sulfonyl]-1,2,3,4-tetrahydro-pyrrolo[1,2-a]pyrazin-1-yl]-N-[6-(piperidin-1-yl-methyl)-1,2,3,4-tetrahydro-naphthalen-1-yl]-acetamide], in that order: 99.7% and 98%.
For `Cc1ccc(S(=O)(=O)N2CCn3cccc3C2CC(=O)NC2CCCc3cc(CN4CCOCC4)ccc32)cc1Cl` (centres unmarked) [Example 57, 2-[2-[(3-Chloro-4-methyl-phenyl)sulfonyl]-1,2,3,4-tetrahydro-pyrrolo[1,2-a]pyrazin-1-yl]-N-[6-(morpholin-4-yl-methyl)-1,2,3,4-tetrahydro-naphthalen-1-yl]-acetamide] the same measures were 98.5% and 101%.
With `Cc1ccc(S(=O)(=O)N2CCn3cccc3C2CC(=O)NC2CCc3cc(CN(C)C)ccc3C2)cc1` (centres unmarked) [Example 58, N-[6-(Dimethylaminomethyl)-1,2,3,4-tetrahydro-naphthalen-2-yl]-2-[2-(p-tolylsulfonyl)-1,2,3,4-tetrahydro-pyrrolo[1,2-a]pyrazin-1-yl]-acetamide], the results for the inhibition at 10 µM in experiment [1] and in experiment [2] were 100% and 103%, respectively.
`CN1CCN(Cc2ccc3c(c2)CCCC3NC(=O)CC2c3cccn3CCN2S(=O)(=O)c2cccc(C(F)(F)F)c2)CC1` (centres unmarked) [Example 59, N-[6-[(4-Methyl-piperazin-1-yl)-methyl]-1,2,3,4-tetrahydro-naphthalen-1-yl]-2-[2-[[3-(trifluoromethyl)phenyl]sulfonyl]-1,2,3,4-tetrahydro-pyrrolo[1,2-a]pyrazin-1-yl]-acetamide]: the results for the inhibition at 10 µM in experiment [1] and in experiment [2] were 99.8% and 76.2%, respectively.
For `Cc1ccc(S(=O)(=O)N2CCn3cccc3C2CC(=O)NC2CCc3cc(CNC(C)(C)C)ccc3C2)cc1Cl` (centres unmarked) [Example 60, N-[6-[(tert-Butylamino)-methyl]-1,2,3,4-tetrahydro-naphthalen-2-yl]-2-[2-[(3-chloro-4-methyl-phenyl)sulfonyl]-1,2,3,4-tetrahydro-pyrrolo[1,2-a]pyrazin-1-yl]-acetamide] the same measures were 99.8% and 99.5%.
With `Cc1ccc(S(=O)(=O)N2CCn3cccc3C2CC(=O)NC2CCc3cc(CN4CCN(C)CC4)ccc3C2)cc1Cl` (centres unmarked) [Example 61, 2-[2-[(3-Chloro-4-methyl-phenyl)sulfonyl]-1,2,3,4-tetrahydro-pyrrolo[1,2-a]pyrazin-1-yl]-N-[6-[(4-methyl-piperazin-1-yl)-methyl]-1,2,3,4-tetrahydro-naphthalen-2-yl]-acetamide], the results for the inhibition at 10 µM in experiment [1] and in experiment [2] were 99.7% and 100%, respectively.
In the case of `CCC(C)NCc1ccc2c(c1)CCC(NC(=O)CC1c3cccn3CCN1S(=O)(=O)c1ccc(C)cc1)C2` (centres unmarked) [Example 62, N-[6-[(1-Methyl-propylamino)-methyl]-1,2,3,4-tetrahydro-naphthalen-2-yl]-2-[2-(p-tolylsulfonyl)-1,2,3,4-tetrahydro-pyrrolo[1,2-a]pyrazin-1-yl]-acetamide], the inhibition at 10 µM in experiment [1] turned out to be 99.2%; in experiment [2], 98.4%.
For `CCC(C)NCc1ccc2c(c1)CCC(NC(=O)CC1c3cccn3CCN1S(=O)(=O)c1ccc(C)c(Cl)c1)C2` (centres unmarked) [Example 63, 2-[2-[(3-Chloro-4-methyl-phenyl)sulfonyl]-1,2,3,4-tetrahydro-pyrrolo[1,2-a]pyrazin-1-yl]-N-[6-[(1-methyl-propylamino)-methyl]-1,2,3,4-tetrahydro-naphthalen-2-yl]-acetamide], in that order: 99.7% and 91.1%.
For `CC(C)(C)NCc1ccc2c(c1)CCC(NC(=O)CC1c3cccn3CCN1S(=O)(=O)c1cccc(C(F)(F)F)c1)C2` (centres unmarked) [Example 64, N-[6-[(tert-Butylamino)-methyl]-1,2,3,4-tetrahydro-naphthalen-2-yl]-2-[2-[[3-(trifluoromethyl)phenyl]sulfonyl]-1,2,3,4-tetrahydro-pyrrolo[1,2-a]pyrazin-1-yl]-acetamide] the same measures were 99.9% and 102%.
`CCC(C)NCc1ccc2c(c1)CCC(NC(=O)CC1c3cccn3CCN1S(=O)(=O)c1cccc(C(F)(F)F)c1)C2` (centres unmarked) [Example 65, N-[6-[(1-Methyl-propylamino)-methyl]-1,2,3,4-tetrahydro-naphthalen-2-yl]-2-[2-[[3-(trifluoromethyl)phenyl]sulfonyl]-1,2,3,4-tetrahydro-pyrrolo[1,2-a]pyrazin-1-yl]-acetamide]: the results for the inhibition at 10 µM in experiment [1] and in experiment [2] were 99.1% and 98.7%, respectively.
